How the values were obtained:
Format in all cases: in vivo
[1] = system: Asian soybean rust (Phakopsora pachyrhizi); experiment: Seed dipping with mefentrifluconazole, Asian soybean rust inoculation, fresh weight of aerial part (Example 4 / Comparative Example 4); conditions: 200 g per hectare; for Treatment/control ratio (100 × A/B): seed dipping 0.2 mg per seed, 7 days from inoculation; for Protection from the damage by the pathogen: seed dipping
Protocol: Seeds of two varieties of determinate soybean were separately dipped in a mefentrifluconazole dilution liquid (prepared by diluting an aqueous suspension concentrate of mefentrifluconazole with water) so that the amount of mefentrifluconazole to be applied to each seed might be 0.2 mg. Then, the determinate soybean seeds were sown to a pot filled with a soil at a sowing rate of 1,000,000 seeds per hectare. That is, the application rate of mefentrifluconazole was 200 g per hectare. Each determinate soybean was incubated in a greenhouse for 11 days from the sowing, and then a pathogen of Asian soybean rust (Phakopsora pachyrhizi) was inoculated to the foliage of each determinate soybean. Each determinate soybean was incubated in a greenhouse for 7 days from the inoculation, and then fresh weight of the aerial part of each determinate soybean was measured. The fresh weight is referred to as ‘the fresh weight in treatment plot’. As a control experiment, the same procedure was repeated except that dipping treatment with mefentrifluconazole dilution liquid and the inoculation of the pathogen were not conducted. The fresh weight obtained in the control experiment is referred to as ‘the fresh weight in control plot’. The same procedure of the example 4 was repeated except for replacing two varieties of determinate soybean with two varieties of indeterminate soybean.

[2] = system: Asian soybean rust (Phakopsora pachyrhizi); experiment: Dripping mefentrifluconazole onto apical bud, Asian soybean rust inoculation, fresh weight of aerial part (Example 5 / Comparative Example 5); conditions: 500 g per hectare; for Treatment/control ratio (100 × A/B): dripped onto apical bud 0.5 mg per plant, 7 days from inoculation
Protocol: Two varieties of determinate soybean were sown to a pot filled with a soil at a sowing rate of 1,000,000 seeds per hectare. Then each determinate soybean was incubated for […] in a greenhouse. A mefentrifluconazole dilution liquid (prepared by diluting an aqueous suspension concentrate of mefentrifluconazole with water) is dripped onto the apical bud of determinate soybean plants so that the amount of mefentrifluconazole to be applied to each plant might be 0.5 mg. That is, the application rate of mefentrifluconazole was 500 g per hectare. Three days after the application, a pathogen of Asian soybean rust (Phakopsora pachyrhizi) was inoculated to the foliage of each determinate soybean. Each determinate soybean was incubated in a greenhouse for 7 days from the inoculation, and then fresh weight of the aerial part of each determinate soybean was measured. The fresh weight is referred to as ‘the fresh weight in treatment plot’.
As a control experiment, the same procedure was repeated except that dripping treatment with mefentrifluconazole dilution liquid and the inoculation of the pathogen were not conducted. The fresh weight obtained in the control experiment is referred to as ‘the fresh weight in control plot’.
The same procedure of the example 5 was repeated except for replacing two varieties of determinate soybean with two varieties of indeterminate soybean.

[3] = system: Asian soybean rust (Phakopsora pachyrhizi); experiment: Foliar spray of mefentrifluconazole, Asian soybean rust inoculation, fresh weight of aerial part (Example 1 / Comparative Example 1); conditions: foliar spray 500 g per hectare, 14 days from inoculation
Protocol: Determinate soybean is sown to a pot filled with a soil. It is incubated for 7 days in a greenhouse. Mefentrifluconazole spray liquid (prepared by diluting an aqueous suspension concentrate of mefentrifluconazole with water) is uniformly sprayed onto the foliage of determinate soybean at the amount of 200 L per hectare so that the application rate of mefentrifluconazole may be 500 g per hectare. On the next day of the spraying, a pathogen of Asian soybean rust (Phakopsora pachyrhizi) is inoculated to the foliage of determinate soybean. The determinate soybean is incubated in a greenhouse for 14 days from the inoculation, and then fresh weight of the aerial part of the determinate soybean is measured. It is confirmed that the fresh weight is equivalent to that of the control where determinate soybean is not treated with mefentrifluconazole and the pathogen is not inoculated (no-treatment-no-inoculation control) and is bigger than that of the control where determinate soybean is not treated with mefentrifluconazole and the pathogen is inoculated (no-treatment-inoculation control). The same procedure of the example 1 is repeated except for replacing determinate soybean with indeterminate soybean or semi-determinate soybean. It is confirmed that the fresh weight of indeterminate soybean or semi-determinate soybean is smaller than that of the corresponding no-treatment-no-inoculation control and is equivalent to that of the corresponding no-treatment-inoculation control.

[4] = system: Asian soybean rust (Phakopsora pachyrhizi); experiment: Seed coating with mefentrifluconazole, Asian soybean rust inoculation, fresh weight of aerial part (Example 2 / Comparative Example 2); conditions: seed coating 0.2 mg per seed, 20 g per hectare, 14 days from inoculation
Protocol: Seeds of determinate soybean are coated with a mefentrifluconazole aqueous suspension concentrate so that the amount of mefentrifluconazole to be applied to each seed may be 0.2 mg. Then, the determinate soybean seeds are sown to a pot filled with a soil at a sowing rate of 100,000 seeds per hectare. That is, the application rate of mefentrifluconazole is 20 g per hectare. Then, the determinate soybean is incubated in a greenhouse for 10 days, followed by inoculating a pathogen of Asian soybean rust (Phakopsora pachyrhizi) to the foliage of determinate soybean. The determinate soybean is incubated in a greenhouse for 14 days from the inoculation, and then the fresh weight of the aerial part of the determinate soybean is measured. It is confirmed that the fresh weight is equivalent to that of the control where determinate soybean is not treated with mefentrifluconazole and the pathogen is not inoculated (no-treatment-no-inoculation control) and is bigger than that of the control where determinate soybean is not treated with mefentrifluconazole and the pathogen is inoculated (no-treatment-inoculation control). The same procedure of the example 2 is repeated except for replacing determinate soybean with indeterminate soybean or semi-determinate soybean. It is confirmed that the fresh weight of indeterminate soybean or semi-determinate soybean is smaller than that of the corresponding no-treatment-no-inoculation control and is equivalent to that of the corresponding no-treatment-inoculation control.

[5] = system: Asian soybean rust (Phakopsora pachyrhizi); experiment: Dripping mefentrifluconazole onto primary leaf, Asian soybean rust inoculation, fresh weight of aerial part (Example 3 / Comparative Example 3); conditions: dripped onto primary leaf 0.2 mg per plant, 200 g per hectare, 14 days from inoculation
Protocol: Determinate soybean is sown to a pot filled with a soil at a sowing rate of 1,000,000 seeds per hectare. The determinate soybean is incubated for 10 days in a greenhouse, and then mefentrifluconazole dilution liquid (prepared by diluting an aqueous suspension concentrate of mefentrifluconazole with water) is dripped onto the primary leaf of determinate soybean so that the amount of mefentrifluconazole to be applied to each plant may be 0.2 mg. That is, the application rate of mefentrifluconazole is 200 g per hectare. On the next day of the application, a pathogen of Asian soybean rust (Phakopsora pachyrhizi) is inoculated to the foliage of determinate soybean. The determinate soybean is incubated in a greenhouse for 14 days from the inoculation, and then fresh weight of the aerial part of the determinate soybean is measured. It is confirmed that the fresh weight is equivalent to that of the control where determinate soybean is not treated with mefentrifluconazole and the pathogen is not inoculated (no-treatment-no-inoculation control) and is bigger than that of the control where determinate soybean is not treated with mefentrifluconazole and the pathogen is inoculated (no-treatment-inoculation control).
The same procedure of the example 3 is repeated except for replacing determinate soybean with indeterminate soybean or semi-determinate soybean. It is confirmed that the fresh weight of indeterminate soybean or semi-determinate soybean is smaller than that of the corresponding no-treatment-no-inoculation control and is equivalent to that of the corresponding no-treatment-inoculation control.

[6] = Kurosengoku, indeterminate soybean
[7] = Toyomusume, determinate soybean
[8] = indeterminate or semi-determinate soybean

CC(O)(Cn1cncn1)c1ccc(Oc2ccc(Cl)cc2)cc1C(F)(F)F (centres unmarked) [mefentrifluconazole]
Treatment/control ratio (100 × A/B) ([1]; Harosoy, indeterminate soybean): 55
Treatment/control ratio (100 × A/B) [1, 6]: 68
Treatment/control ratio (100 × A/B) ([1]; Tambaguro, determinate soybean): 104
Treatment/control ratio (100 × A/B) [1, 7]: 105
Protection from the damage by the pathogen ([1]; determinate soybean (Table 1)): successfully protected
Protection from the damage by the pathogen ([1]; indeterminate soybean (Table 2)): not successfully protected
Treatment/control ratio (100 × A/B) [2, 6]: 49
Treatment/control ratio (100 × A/B) ([2]; Tambaguro, determinate soybean): 82
Treatment/control ratio (100 × A/B) [2, 7]: 85
Treatment/control ratio (100 × A/B) ([2]; Williams 82, indeterminate soybean): 39
Protection from the damage by the pathogen ([2]; determinate versus indeterminate soybeans (Tables 3 and 4), dripped onto apical bud): protected much more effectively compared with indeterminate soybeans
Fresh weight of aerial part compared with no-treatment-inoculation control ([3]; determinate soybean): bigger
Fresh weight of aerial part compared with no-treatment-no-inoculation control ([3]; determinate soybean): equivalent
Fresh weight of aerial part compared with no-treatment-inoculation control [3, 8]: equivalent
Fresh weight of aerial part compared with no-treatment-no-inoculation control [3, 8]: smaller
Fresh weight of aerial part compared with no-treatment-inoculation control ([4]; determinate soybean): bigger
Fresh weight of aerial part compared with no-treatment-no-inoculation control ([4]; determinate soybean): equivalent
Fresh weight of aerial part compared with no-treatment-inoculation control [4, 8]: equivalent
Fresh weight of aerial part compared with no-treatment-no-inoculation control [4, 8]: smaller
Fresh weight of aerial part compared with no-treatment-inoculation control ([5]; determinate soybean): bigger
Fresh weight of aerial part compared with no-treatment-no-inoculation control ([5]; determinate soybean): equivalent
Fresh weight of aerial part compared with no-treatment-inoculation control [5, 8]: equivalent
Fresh weight of aerial part compared with no-treatment-no-inoculation control [5, 8]: smaller

From patent publication US11304417B2, “Method of protecting determinate soybean from damage by a plant pathogen” (SUMITOMO CHEMICAL COMPANY, LIMITED, priority 2019, dated 2022)
